Counter-ions that a name gives are not always drawn.
Assays:
[1] = target: KIT cytoplasmic domain (GST fused protein) (Homo sapiens (Human), UniProt P10721); test: Biochemical assay for inhibitors of KIT kinase activity; conditions: 4 nM pre activated enzyme, 4.4 microM ATP, 60 minutes at r.t.
Description: KIT cytoplasmic domain (aa 544-976end of the 976 aminoacid long full length sequence, accession number P10721 of UniProtKB/Swiss-Prot database) was cloned into pVL vector for expression in insect cells through the baculovirus system. The GST-KIT cytoplasmic domain has been expressed in Sf21 cells infected for 66 hrs at 27° C. The recombinant protein has been purified by affinity on GSH-sepharose and eluted with glutathione. […] General Principle-A specific peptidic substrate was trans-phosphorylated by the kinase in the presence of ATP traced with 33Pγ-ATP. At the end of the phosphorylation reaction, the not reacted ATP, cold and radioactive, was captured by an excess of dowex ion exchange resin that eventually settled by gravity to the bottom of the reaction plate. The supernatant was subsequently withdrawn and transferred into a counting plate that was then evaluated by β-counting. • ii. Dowex resin preparation-500 g of wet resin (SIGMA, custom prepared resin DOWEX 1×8 200-400 mesh, 2.5 Kg) were weighed out and diluted to 2 L in 150 mM sodium formate, pH 3.00. The resin was allowed to settle down overnight and then the supernatant was discarded. After three washes as above over a couple of days, the resin was allowed to settle and two volumes (with respect to the resin volume) were added of 150 mM sodium formate buffer. Biochemical Assay for Inhibitors of FLT3 Kinase Activity • i. Enzyme-The assay was performed using FLT3 cytoplasmic domain product and purified in house as GST fused protein. […] The peptide was purchased from American Peptide Company (Sunnyvale, Calif.). Biochemical Assay for Inhibitors of KIT Kinase Activity • i. Enzyme-The assay has been performed using KIT cytoplasmic domain product and purified in house as GST fused protein. […] NO: 2). The peptide was purchased from American Peptide Company (Sunnyvale, Calif.). Compound Testing • i. […] An automated station for serial dilutions (Biomek FX, Beckman) was used for producing 1:3 dilutions in 100% DMSO, from line A1 to A10, and for all the compounds in the column. […] The following dispensation into the plates plus 3 cycles of mixing, done by the robot itself, started the kinase reaction. At this point, the correct concentrations were restored for all the reagents. The robot incubated the plates for 60 minutes at r.t., and then stopped the reaction by pipetting 60 microL of dowex resin suspension into the reaction mix. In order to avoid tip clogging, wide bore tips were used to dispense the resin suspension. Three cycles of mixing were done immediately after the addition of the resin. Another mixing cycle was performed after all the plates were stopped, this time using normal tips: the plates were then allowed to rest for about one hour in order to allow resin sedimentation. […] Data Fitting-Data were analyzed by an internally customized version of the SW package “Assay Explorer” that provided sigmoidal fitting of the ten-dilutions curves for IC50 determination in the secondary assays/hit confirmation routines. Cell-Based Assays for Inhibitors of FLT3 Kinase Activity In vitro Cell Proliferation Assay for Inhibitors of FLT3 Kinase Activity

[2] = target: FLT3 cytoplasmic domain (GST fused protein) (Homo sapiens (Human), UniProt P36888); test: Biochemical assay for inhibitors of FLT3 kinase activity; conditions: 2 nM pre activated enzyme, 254 microM ATP, 60 minutes at r.t.
Chain of FLT3 cytoplasmic domain (GST fused protein) (P36888 564-993): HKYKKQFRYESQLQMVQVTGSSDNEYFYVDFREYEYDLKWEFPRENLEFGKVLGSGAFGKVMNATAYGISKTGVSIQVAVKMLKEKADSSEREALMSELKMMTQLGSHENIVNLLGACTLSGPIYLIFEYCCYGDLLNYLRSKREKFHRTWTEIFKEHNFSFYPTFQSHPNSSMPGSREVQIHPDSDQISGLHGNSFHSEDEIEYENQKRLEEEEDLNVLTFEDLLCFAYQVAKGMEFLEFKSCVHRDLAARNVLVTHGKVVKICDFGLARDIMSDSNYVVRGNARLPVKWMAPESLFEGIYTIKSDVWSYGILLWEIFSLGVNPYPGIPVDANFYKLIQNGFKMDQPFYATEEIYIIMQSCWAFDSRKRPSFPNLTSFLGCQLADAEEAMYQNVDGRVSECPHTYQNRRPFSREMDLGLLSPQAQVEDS
Description: FLT3 cytoplasmic domain (aa 564-993end of the 993 aminoacid long full length sequence, accession number P36888 of UniProtKB/Swiss-Prot. database) was amplified by PCR starting from a testis cDNA library and then cloned into pVL vector for expression in insect cells through the baculovirus system. The GST-FLT3 cytoplasmic domain has been expressed in Sf21 cells infected for 72 hours at 27° C. The recombinant protein has been purified by affinity on GSH-sepharose and eluted with glutathione. A further purification step has been performed on heparine sepharose. […] General Principle-A specific peptidic substrate was trans-phosphorylated by the kinase in the presence of ATP traced with 33Pγ-ATP. At the end of the phosphorylation reaction, the not reacted ATP, cold and radioactive, was captured by an excess of dowex ion exchange resin that eventually settled by gravity to the bottom of the reaction plate. The supernatant was subsequently withdrawn and transferred into a counting plate that was then evaluated by β-counting. • ii. Dowex resin preparation-500 g of wet resin (SIGMA, custom prepared resin DOWEX 1×8 200-400 mesh, 2.5 Kg) were weighed out and diluted to 2 L in 150 mM sodium formate, pH 3.00. The resin was allowed to settle down overnight and then the supernatant was discarded. After three washes as above over a couple of days, the resin was allowed to settle and two volumes (with respect to the resin volume) were added of 150 mM sodium formate buffer. Biochemical Assay for Inhibitors of FLT3 Kinase Activity • i. Enzyme-The assay was performed using FLT3 cytoplasmic domain product and purified in house as GST fused protein. […] NO: 1). The peptide was purchased from American Peptide Company (Sunnyvale, Calif.). Biochemical Assay for Inhibitors of KIT Kinase Activity • i. Enzyme-The assay has been performed using KIT cytoplasmic domain product and purified in house as GST fused protein. […] NO: 2). The peptide was purchased from American Peptide Company (Sunnyvale, Calif.). Compound Testing • i. […] An automated station for serial dilutions (Biomek FX, Beckman) was used for producing 1:3 dilutions in 100% DMSO, from line A1 to A10, and for all the compounds in the column. […] The following dispensation into the plates plus 3 cycles of mixing, done by the robot itself, started the kinase reaction. At this point, the correct concentrations were restored for all the reagents. The robot incubated the plates for 60 minutes at r.t., and then stopped the reaction by pipetting 60 microL of dowex resin suspension into the reaction mix. In order to avoid tip clogging, wide bore tips were used to dispense the resin suspension. Three cycles of mixing were done immediately after the addition of the resin. Another mixing cycle was performed after all the plates were stopped, this time using normal tips: the plates were then allowed to rest for about one hour in order to allow resin sedimentation. […] Data Fitting-Data were analyzed by an internally customized version of the SW package “Assay Explorer” that provided sigmoidal fitting of the ten-dilutions curves for IC50 determination in the secondary assays/hit confirmation routines. Cell-Based Assays for Inhibitors of FLT3 Kinase Activity In vitro Cell Proliferation Assay for Inhibitors of FLT3 Kinase Activity

[3] = tested on: MV-4-11 cells, bearing a FLT3-ITD mutation; test: In vitro cell proliferation assay (CellTiter-Glo), MV-4-11; type: cell-based; conditions: Homo sapiens, MV4-11, MV-4-11, 72 h
Description: (§1) The human acute leukemia MOLM-13 AND MV-4-11 cells, bearing a FLT3-ITD mutation, were seeded (5000 cells/well) in white 384 well-plates in complete medium (RPMI 1640 plus 10% Fetal bovine serum) and treated with compounds dissolved in 0.1% DMSO, 24 h after seeding. The cells were incubated at 37° C. and 5% CO2 and after 72 h the plates were processed using CellTiter-Glo assay (Promega) following the manufacturer's instruction.
(§2) CellTiter-Glo is a homogenous method based on the quantification of the ATP present, an indicator of metabolitically active cells. ATP was quantified using a system based on luciferase and D-luciferin resultant into light generation. The luminescent signal was proportional to the number of cells present in culture.
(§3) Briefly, 25 microL/well reagent solution were added to each well and, after 5 minutes shaking, microplates were read by Envision (PerkinElmer) luminometer. Inhibitory activity was evaluated comparing treated versus control data using Symyx Assay Explorer (Symyx Technologies Inc.) program. IC50 was calculated using sigmoidal interpolation curve.

[4] = tested on: MOLM-13 cells, bearing a FLT3-ITD mutation; test: In vitro cell proliferation assay (CellTiter-Glo), MOLM-13; type: cell-based; conditions: Homo sapiens, MOLM-13, 72 h
Description: as §1, §2, §3

Chain of KIT cytoplasmic domain (GST fused protein) (P10721 544-976): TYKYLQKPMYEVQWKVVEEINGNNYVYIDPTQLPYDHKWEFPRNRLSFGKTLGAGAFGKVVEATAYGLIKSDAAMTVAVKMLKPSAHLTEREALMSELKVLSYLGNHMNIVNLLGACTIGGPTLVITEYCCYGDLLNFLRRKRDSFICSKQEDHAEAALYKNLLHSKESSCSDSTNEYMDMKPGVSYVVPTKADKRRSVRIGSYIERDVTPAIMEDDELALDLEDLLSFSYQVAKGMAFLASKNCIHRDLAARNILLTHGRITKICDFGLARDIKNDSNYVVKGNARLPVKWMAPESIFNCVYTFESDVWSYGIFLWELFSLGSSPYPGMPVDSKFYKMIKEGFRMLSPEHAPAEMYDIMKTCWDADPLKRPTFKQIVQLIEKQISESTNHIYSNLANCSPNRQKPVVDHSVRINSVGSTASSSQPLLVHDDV

| SMILES | IC50 [1] | IC50 [2] | IC50 [3] | IC50 [4] |
| --- | --- | --- | --- | --- |
| O=C(Nc1n[nH]c2cc(OCCOCc3ccccc3)ccc12)c1ccc(N2CCNCC2)cc1 [Cpd. 20, N-[6-(2-Benzyloxy-ethoxy)-1H-indazol-3-yl]-4-piperazin-1-yl-benzamide] | 52 nM | < 50 nM | < 50 nM | < 50 nM |
| CN(C)Cc1ccc(C(=O)Nc2n[nH]c3cc(OCCOCc4ccccc4)ccc23)cc1 [Cpd. 21, N-[6-(2-Benzyloxy-ethoxy)-1H-indazol-3-yl]-4-dimethylaminomethyl-benzamide] | 134 nM | 104 nM | < 50 nM |  |
| O=C(Nc1n[nH]c2cc(OCCOCc3ccccc3)ccc12)c1ccc(N2CCOCC2)cc1 [Cpd. 24, N-[6-(2-Benzyloxy-ethoxy)-1H-indazol-3-yl]-4-morpholin-4-yl-benzamide] | 260 nM | 162 nM | < 50 nM | < 50 nM |
| O=C(Nc1n[nH]c2cc(OCCOCc3ccccc3)ccc12)c1ccc(NC2CCOCC2)cc1 [Cpd. 26, N-[6-(2-Benzyloxy-ethoxy)-1H-indazol-3-yl]-4-(tetrahydro-pyran-4-ylamino)-benzamide] | 124 nM | 90 nM | < 50 nM | < 50 nM |
| CN1CCN(c2ccc(C(=O)Nc3n[nH]c4cc(OCCOCc5ccccc5F)ccc34)cc2)CC1 [Cpd. 30, N-{6-[2-(2-Fluoro-benzyloxy)-ethoxy]-1H-indazol-3-yl}-4-(4-methyl-piperazin-1-yl)-benzamide] | 1400 nM | 166 nM | < 50 nM | < 50 nM |
| CN1CCN(c2ccc(C(=O)Nc3n[nH]c4cc(OCCOCc5ccc(F)cc5)ccc34)cc2)CC1 [Cpd. 32, N-{6-[2-(4-Fluoro-benzyloxy)-ethoxy]-1H-indazol-3-yl}-4-(4-methyl-piperazin-1-yl)-benzamide] | < 50 nM | < 50 nM |  |  |
| CN1CCN(c2ccc(C(=O)Nc3n[nH]c4cc(OCCOCc5ccc(C(F)(F)F)cc5)ccc34)cc2)CC1 [Cpd. 33, 4-(4-Methyl-piperazin-1-yl)-N-{6-[2-(4-trifluoromethyl-benzyloxy)-ethoxy]-1H-indazol-3-yl}-benzamide] | < 50 nM | < 50 nM |  |  |
| CN1CCN(c2ccc(C(=O)Nc3n[nH]c4cc(OCCOCc5cccc(C(F)(F)F)c5)ccc34)cc2)CC1 [Cpd. 34, 4-(4-Methyl-piperazin-1-yl)-N-{6-[2-(3-trifluoromethyl-benzyloxy)-ethoxy]-1H-indazol-3-yl}-benzamide] | 58 nM | 56 nM |  |  |
| CN1CCN(c2ccc(C(=O)Nc3n[nH]c4cc(OCCOCc5ccncc5)ccc34)cc2)CC1 [Cpd. 35, 4-(4-Methyl-piperazin-1-yl)-N-{6-[2-(pyridin-4-ylmethoxy)-ethoxy]-1H-indazol-3-yl}-benzamide] | 2370 nM | 1180 nM | < 50 nM | < 50 nM |
| CN1CCN(c2ccc(C(=O)Nc3n[nH]c4cc(OCCOCc5ccccc5)ccc34)c(F)c2)CC1 [Cpd. 38, N-[6-(2-Benzyloxy-ethoxy)-1H-indazol-3-yl]-2-fluoro-4-(4-methyl-piperazin-1-yl)-benzamide] | 613 nM | 539 nM |  |  |
| CN1CCN(c2ccc(C(=O)Nc3n[nH]c4cc(OC/C=C/c5ccccc5)ccc34)cc2)CC1 [Cpd. 39, 4-(4-Methyl-piperazin-1-yl)-N-[6-((E)-3-phenyl-allyloxy)-1H-indazol-3-yl]-benzamide] | 528 nM | 62 nM |  |  |
| COc1ccc(COCCOc2ccc3c(NC(=O)c4ccc(N5CCN(C)CC5)cc4)n[nH]c3c2)cc1 [Cpd. 40, N-{6-[2-(4-Methoxy-benzyloxy)-ethoxy]-1H-indazol-3-yl}-4-(4-methyl-piperazin-1-yl)-benzamide] | 88 nM | < 50 nM |  |  |
| CN(c1ccc(C(=O)Nc2n[nH]c3cc(OCCOCc4ccccc4)ccc23)cc1)C1CC[N+](C)([O-])CC1 (stereo not shown) [Cpd. 41, N-[6-(2-Benzyloxy-ethoxy)-1H-indazol-3-yl]-4-[methyl-(1-methyl-1-oxy-piperidin-4-yl)-amino]-benzamide] | 180 nM | 52 nM | < 50 nM | < 50 nM |
| C[N+]1([O-])CCN(c2ccc(C(=O)Nc3n[nH]c4cc(OCCOCc5ccc(C(F)(F)F)cc5)ccc34)cc2)CC1 [Cpd. 42, 4-(4-Methyl-4-oxy-piperazin-1-yl)-N-{6-[2-(4-trifluoromethyl-benzyloxy)-ethoxy]-1H-indazol-3-yl}-benzamide hydrochloride] | 55 nM | < 50 nM |  |  |
| CN(C)c1ccc(C(=O)Nc2n[nH]c3cc(OCc4ccccc4)ccc23)cc1 [Ref. Compound, reference compound] | > 10000 nM | 3180 nM |  |  |
